Experimental data: article PMC12895000, “Structural and computational supported development of 2,5-disubstituted-1,3,4-oxadiazole analogues as active LOX, urease, and α-glucosidase inhibitors” (Scientific Reports, 2026)

Target: α-glucosidase (Saccharomyces cerevisiae, UniProt P53341)
Format: biochemical
Procedure: Inspection of α-glucosidase inhibition was made by using protocol mentioned in literature. 10 µl (0.057 units) of purified enzyme, 10 µl (0.5 mM) of the test compound and 70 µl (50 mM) of sodium phosphate buffer (pH = 6.8) were collected in a 96-well plate. Pre-incubation for 10 min at 37 °C was performed. Pre-reading was done at 400 nm. 10 µl (0.5 mM) of p-nitrophenyl glucopyranoside were added as a substrate. […] The collection of all data was made thrice. The formula given above allowed to calculate % of inhibition.

Sequence of α-glucosidase (P53341 whole entry): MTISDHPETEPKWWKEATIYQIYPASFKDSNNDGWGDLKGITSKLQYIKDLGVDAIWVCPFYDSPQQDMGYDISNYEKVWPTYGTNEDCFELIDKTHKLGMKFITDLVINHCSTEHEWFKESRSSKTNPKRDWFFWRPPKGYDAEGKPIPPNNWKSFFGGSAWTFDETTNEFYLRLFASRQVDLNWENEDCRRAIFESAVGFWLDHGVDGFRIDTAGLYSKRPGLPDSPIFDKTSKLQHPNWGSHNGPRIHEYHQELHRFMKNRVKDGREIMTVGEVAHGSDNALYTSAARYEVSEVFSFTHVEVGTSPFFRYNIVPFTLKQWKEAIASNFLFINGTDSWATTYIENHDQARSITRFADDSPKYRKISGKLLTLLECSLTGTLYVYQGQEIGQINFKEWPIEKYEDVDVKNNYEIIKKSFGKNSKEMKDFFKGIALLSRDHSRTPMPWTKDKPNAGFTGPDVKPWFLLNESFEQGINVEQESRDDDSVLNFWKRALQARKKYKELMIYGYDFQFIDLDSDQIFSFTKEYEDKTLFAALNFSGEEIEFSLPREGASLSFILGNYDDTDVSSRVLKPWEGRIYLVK

## C[C@H]1O[C@H](O[C@H]2[C@H](O)[C@@H](O)[C@@H](O[C@H]3[C@H](O)[C@@H](O)C(O)O[C@@H]3CO)O[C@@H]2CO)[C@H](O)[C@@H](O)[C@@H]1N[C@H]1C=C(CO)[C@@H](O)[C@H](O)[C@H]1O (stereo partly shown) [Acarbose]
  α-Glucosidase Inhibition (%) at 0.5 Mm: 65.73 ± 1.93%
